Assay [1] addresses T1, immobilized peptide fragment corresponding to the region 1-16 of the amyloid-β peptide (Homo sapiens, UniProt P05067).
T1 construct: N-terminal acetyl cap (Ac); C-terminal amide cap (NH2)
Description: SPR binding (BIACORE T100), Example 3, in the absence of zinc. Conditions: for Kd: BIACORE T100, no zinc, at least 99% L isomers, read-out: dissociation constant Kd (Example 3). The text has this: The binding tests described in Example 1 were reproduced, with the same materials, reactives and procedures except for the following significant differences: • the BIACORE apparatus applied was the BIACORE T100 apparatus. This BIACORE T100 apparatus produces more accurate results than the BIACORE 3000 because it includes a degasification system upon injecting the analyte on the sensor and because the method for detecting immobilized ligand/analyte intermolecular complexes on the CM5 chip is more accurate. • the tetrapeptides according to the invention used were purified to at least 99% in L isomers according to HPLC data, the D isomers were prevented from forming and/or removed during the synthesis. In Example 1, the tetrapeptides only included 98% of L isomers. • the concentrations of the tetrapeptides according to the invention applied were 50; 100; 200; 500; 1,000; 1,500 and 2,000 μM. • these experiments were conducted in the absence of zinc. • the surface of the CM5 chips provided a surface which gave a variation of response units (RU) of about 1,023 arbitrary units, with a control liquid sample.
the dissociation constant Kd being given by the formula Kd=koff/kon.
(In general: SPR reads the build-up and loss of mass on a sensor chip optically.)

For another assay, the target named is T2, Aβ peptide (1-40) (Homo sapiens, UniProt P05067).
T2 construct: The complete β peptide 1-40 was used, marked by a fluorescent marker; purchased QUALITY CONTROLLED BIOCHEMICALS Inc. USA
T2 sequence (P05067 672-711 limits assumed): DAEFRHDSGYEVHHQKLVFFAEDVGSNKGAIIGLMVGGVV
The experiment in a line: Aβ aggregation on SYNTHALOID SCREENING PLATE kit (fluorescence). The format is biochemical. As to conditions: for IC50: 100 nM marked Aβ (1-40), 3 hours at room temperature, buffer with physiological Zn(II), read-out: inhibitory concentration IC50 of aggregation of the Aβ peptide; for effect of prolonged incubation on amyloid aggregates: incubation for at least 1 hour, 20, 40, 80, 100 and 150 μM. The protocol: They were left to incubate for 3 hours at room temperature in the wells.
In certain wells, tetrapeptides AC-HAEE-NH2 and Ac-RADD-NH2 according to the invention, were introduced at different concentrations depending on the wells (0, 5, 10, 20, 40, 80, 100 and 150 μM), for checking the effect of tetrapeptides according to the invention on the aggregation phenomenon of Aβ peptides.
To do this, at the end of the incubation, the unbound proteins in the wells were removed with three washings, by using the buffer solution above. The amount of bound proteins in the form of aggregates, bound to the well, was measured by measuring the fluorescence intensity.

Assay [2] has as its target T3, immobilized peptide fragment corresponding to the 1-16 region of the amyloid-β peptide (Homo sapiens, UniProt P05067).
T3 construct: N-terminal acetyl cap (Ac); C-terminal amide cap (NH2)
Description: SPR binding (BIACORE 3000), Examples 1 and 2.
Description: With this analysis, it is possible to calculate the dissociation constant Kd of the interaction of the peptide with the immobilized ligand, it being understood that the value of Kd is all the more smaller since the interaction with the ligand and therefore the stability of the formed interaction complex are high.
More specifically, in an SPR spectroscopy system, for example applying a biosensor from BIACORE, after immobilization of the ligand at the surface of a sensor of the chip type, in this case here the amyloid-β fragment, the analyte reagent is injected on said surface at a constant flow rate through systems of microfluidic channels. Polarized light emitted by a light source is reflected on the gold-covered surface of the chip, and then detected by a diode reader. According to the binding of the ligand and of the analyte molecule, the intensity of the reflected light is different. The variation in the response of the spectrometer (RU=Response unit) allows calculation of the dissociation constant of the interaction.
The chips of the biosensor came from GE Healthcare (USA). The SPR spectroscopy experiments were conducted with the BIACORE 3000 apparatus. The reagents for immobilizing the amyloid-β peptide fragment (EDC, NHS, PDEA and cysteine) were bought from GE Healthcare (USA). The buffer used for immobilizing the peptide ligand by formation of thiol bonds was 10 mM sodium acetate at pH 4.5. The regeneration buffer was an HBS buffer containing a medium with 10 mM HEPES and 3 mM EDTA, 0.005% of surfactant P20 and 150 mM NaCl at pH 7.4. […] All the buffers were filtered before use.
This peptide with 21 amino acids contains the 16 amino acids of the N-terminal end of the binding domain of the amyloid-β, i.e. [sequence] (SEQ. ID. NO.25), followed by 4 glycine amino acids and a cysteine C-Terminal end. Cysteine is necessary for immobilizing the ligand on the surface of the chip through a thiol bond according to the procedure of the supplier. 4 glycine amino acids therefore form a binding tetrapeptide (“linker”) between the chip and the ligand. Further, the thereby immobilized ligand has enough flexibility relatively to the surface, so as to validly mimic the interaction conditions between the tetrapeptide reagent and the ligand. This ligand was bound onto a CM5 chip of the biosensor, by following the standard procedure through a thiol bond under conditions described in the handbook of the sensor provided by the supplier GE Healthcare (USA).
The flow rate applied in all the steps was 5 μl/min. The carboxymethyl dextran matrix was activated by injecting a 1:1 mixture of 1-ethyl-3(3-dimethylaminopropyl)-carbodiimide (EDC) and of N-hydroxysuccinimide (NHS), i.e. 30 μl of EDC at 400 mM and NHS at 100 mM, followed by an injection of 80 mM PDEA (2-(2-pyridinyldithio)-ethane-amine) in solution in 0.1 M sodium borate at a pH of 8.5. The peptide ligand in solution in a sodium acetate buffer in an amount of 0.05 mg/ml was then injected. […] The control liquid was reacted with the surface of the chip according to the same procedure.
The surface of the chip was exposed for 330 seconds to the reagent buffer solution in order to track its binding. The surface of the chip was then regenerated by injecting a regeneration buffer (20 μL). The data of the control lane were subtracted from raw data of the lane corresponding to the immobilized reagent peptides.

Where a SMILES comes first, the peptide text is derived from it.

T3 sequence (P05067 with tags, fused parts or gaps limits assumed): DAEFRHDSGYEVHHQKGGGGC

In assay [1], `CC(=O)N[C@@H](Cc1c[nH]cn1)C(=O)N[C@@H](C)C(=O)N[C@@H](CC(=O)O)C(=O)N[C@@H](CC(=O)O)C(N)=O` [SEQ. ID. NO. 1, HADD] (Ac-HADD-NH2) registered a koff of 0.0104 ± 2e-05 s⁻¹ and an on-rate constant (kon) of 3.2 ± 0.08 M⁻¹ s⁻¹.

As for `CC(=O)N[C@@H](CC(=O)O)C(=O)N[C@@H](CC(=O)O)C(=O)N[C@@H](C)C(=O)N[C@@H](CCCCN)C(N)=O` [SEQ. ID. NO. 4, DDAK] (Ac-DDAK-NH2), in assay [1], the koff was found to be 0.0062 ± 0.0001 s⁻¹, the kon is 4.57 ± 0.09 M⁻¹ s⁻¹ and the Kd lay in the range of 1000 to 10000 µM.

As for `CC(=O)N[C@@H](CCCCN)C(=O)N[C@@H](C)C(=O)N[C@@H](CC(=O)O)C(=O)N[C@@H](CCC(=O)O)C(N)=O` [SEQ. ID. NO. 15, KADE] (Ac-KADE-NH2), in assay [1], the koff was found to be 0.0096 ± 0.0002 s⁻¹, the kon is 2.2 ± 0.1 M⁻¹ s⁻¹ and the Kd is 1000 to 10000 µM.

As for `CC(=O)N[C@@H](CCCNC(=N)N)C(=O)N[C@@H](C)C(=O)N[C@@H](CC(=O)O)C(=O)N[C@@H](CC(=O)O)C(N)=O` [SEQ. ID. NO. 5, Ac-RADD-NH2] (Ac-RADD-NH2), in assay [1], the off-rate constant (koff) was determined as 0.00024 ± 4e-05 s⁻¹ and the kon was found to be 18.5 M⁻¹ s⁻¹. For the same compound, on Aβ peptide (1-40), the IC50 is 20 µM and the “effect of prolonged incubation on amyloid aggregates” value is “irreversible disaggregation”.

As to `CC(=O)N[C@@H](CCCCN)C(=O)N[C@@H](C)C(=O)N[C@@H](CCC(=O)O)C(=O)N[C@@H](CC(=O)O)C(N)=O` [SEQ. ID. NO. 9, KAED] (Ac-KAED-NH2), in assay [1], the koff turned out to be 0.019 ± 0.001 s⁻¹, the kon turned out to be 5.7 ± 0.9 M⁻¹ s⁻¹ and the Kd lay within 1000 to 10000 µM.

Take `CC(=O)N[C@@H](Cc1c[nH]cn1)C(=O)N[C@@H](C)C(=O)N[C@@H](CCC(=O)O)C(=O)N[C@@H](CCC(=O)O)C(N)=O` [SEQ. ID. NO. 19, Ac-HAEE-NH2] (Ac-HAEE-NH2): in assay [2] (BIACORE 3000, peptides with Ra=Ac, Rb=NH2, 98% L isomers, read-out: dissociation constant Kd), the Kd was found to be 0.022 µM. Further, the “interactions of the ligand with the reagent at high concentrations of Zn(II) ions” value in assay [2] (Zn(II) 10 mM) was “suppressed the interactions”. For the same compound, the “dissociation constant in the presence of physiological concentrations of Zn(II) ions” value in assay [2] (Zn(II) 100-400 μM) is recorded as “practically unchanged”. Further, the “interactions with the 1-16 domain of Aβ at higher concentrations of Zn(II) ions” value in assay [2] (Zn(II) of the order of 1 millimolar (mM)) is recorded as “suppress the interactions”. Besides, the “binding to the 1-16 domain of the amyloid-β in the presence or absence of Zn(II) ions” value in assay [2] (physiological Zn(II), micromolar levels (less than 500 μM)) was “practically not altered”. Further, in assay [1], the koff turned out to be 3.5e-05 ± 8e-06 s⁻¹ and the association rate constant (kon) turned out to be 0.37 ± 0.05 M⁻¹ s⁻¹. On Aβ peptide (1-40), the IC50 is 20 µM and the “effect of prolonged incubation on amyloid aggregates” value is on record as “irreversible disaggregation”.

In the case of `CC(=O)N[C@@H](CCCNC(=N)N)C(=O)N[C@@H](C)C(=O)N[C@@H](CCC(=O)O)C(=O)N[C@@H](CCC(=O)O)C(N)=O` [SEQ. ID. NO. 23, RAEE] (Ac-RAEE-NH2), in assay [1], the koff amounted to 0.0112 ± 8e-05 s⁻¹, the on-rate (kon) was 1.5 ± 0.1 M⁻¹ s⁻¹ and the Kd was 1000 to 10000 µM.

Turning to `CC(=O)N[C@@H](CC(=O)O)C(=O)N[C@@H](CCC(=O)O)C(=O)N[C@@H](C)C(=O)N[C@@H](CCCNC(=N)N)C(N)=O` [SEQ. ID. NO. 12, DEAR] (Ac-DEAR-NH2), in assay [1], the koff came out at 0.00709 ± 9e-05 s⁻¹, the kon was 3.58 ± 0.08 M⁻¹ s⁻¹ and the Kd is 1000 to 10000 µM.

As a reminder, the koff is a measure of how fast the partners let go of each other. The low end stands for slow dissociation, the high end for fast dissociation. A word on the kon: it is a measure of how fast the partners come together. A lower kon goes with slow association. Usually Kd stands for the concentration at which binding is half-saturated.
